Data taken from patent publication EP4678638A1, “NEW E3 UBIQUITIN LIGASE LIGAND, PROTEIN DEGRADATION AGENT AND USE THEREOF” (priority 2023, dated 2024).

Experiments:
ALK = target: T1, ALK (Homo sapiens, UniProt Q96SW2+Q9HC35+Q9UM73); experiment: Western blot degradation of ALK (H2228 Cell); format: cell-based; settings: Table D5
T1 construct: evaluate the effects of the compounds of the present disclosure on the expression of target proteins in cells; endogenous in cells; host or cells: H2228
Outline: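 Degradation is assessed by immunoblotting lysates of treated cells. Target bands are quantified by grayscale and normalised to an internal control, so degradation rate equals 100% minus % remaining.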

H2228 = experiment: CCK-8 proliferation, NCI-H2228 (H2228); format: cell-based; settings: Homo sapiens, NCI-H2228; Table B6, compounds designed based on the ALK inhibitors; H2228 cells; read-out: Inhibitory activity (IC50, nM) on tumor cell proliferation, H2228
Outline: (§1)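 CCK-8 viability readout; IC50 from growth-inhibition curve fitting. Cells plated, dosed 24h later with a 10-point series, top 10µM, 5-fold steps. Culture at 37°C, 5% CO2.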

SR = experiment: CCK-8 proliferation, SR; format: cell-based, Human; settings: Homo sapiens; Table B6, compounds designed based on the ALK inhibitors; SR cells; read-out: Inhibitory activity (IC50, nM) on tumor cell proliferation, SR
Outline: as §1

MDA-MB-231 = experiment: CCK-8 proliferation, MDA-MB-231; format: cell-based; settings: Homo sapiens; Table B6, compounds designed based on the ALK inhibitors; MDA-MB-231 cells; read-out: Inhibitory activity (IC50, nM) on tumor cell proliferation, MDA-MB-231
Description: The tumor cells used herein were cultured in a cell culture medium listed in table A1 at 37°C in an incubator with 5% CO2. Prior to experimentation, all cell lines used were correctly identified by STR profiling, and tested negative for mycoplasma contamination using a mycoplasma detection kit through routine screenings. Table A1. Tumor cells and cell culture medium used in the present disclosure
IC50 values of the compounds of the present disclosure (including the compounds in Table 1, and compounds of examples) were measured using the Meilun Cell Counting Kit-8 kit from Dalian Meilun Biotech Co., Ltd. Assay details are as follows: tumor cells were seeded in a 96-well plate at a density listed in Table A2. After 24h, 100 µL of the inoculated cells were treated with 0.5µL of the compounds of the present disclosure (including the compounds in Tables 1 and 2, and compounds of examples) at 10 different successively decreasing concentrations (starting at the highest concentration of 10µM; 5-fold serial dilutions). After the cells were treated with the compounds of the present disclosure for a period of time, the cell viability detection reagent was added to the culture medium for cell viability assessment according to the instructions provided with the CCK-8 kit. […] The growth inhibition of the compounds of the present disclosure on cells was plotted by Prism Graphpad software, and the IC50 values of the compounds of the present disclosure were calculated therefrom. […] Seeding protocol and treatment time for tumor cells

MCF7 = experiment: CCK-8 proliferation, MCF7 (MCF-7); format: cell-based; settings: Homo sapiens, MCF7; Table B6, compounds designed based on the ALK inhibitors; MCF-7 cells; read-out: Inhibitory activity (IC50, nM) on tumor cell proliferation, MCF-7
Outline: as §1

H1975 = experiment: CCK-8 proliferation, NCI-H1975 (H1975); format: cell-based, Human; settings: Homo sapiens, NCI-H1975; Table B6, compounds designed based on the ALK inhibitors; H1975 cells; read-out: Inhibitory activity (IC50, nM) on tumor cell proliferation, H1975
Outline: as §1

MM.1S = experiment: CCK-8 proliferation, MM.1S; format: cell-based; settings: Homo sapiens, MM1.S; Table B6, compounds designed based on the ALK inhibitors; MM.1S cells; read-out: Inhibitory activity (IC50, nM) on tumor cell proliferation, MM.1S
Outline: as §1

T1 sequence (Q9HC35+Q9UM73 fused): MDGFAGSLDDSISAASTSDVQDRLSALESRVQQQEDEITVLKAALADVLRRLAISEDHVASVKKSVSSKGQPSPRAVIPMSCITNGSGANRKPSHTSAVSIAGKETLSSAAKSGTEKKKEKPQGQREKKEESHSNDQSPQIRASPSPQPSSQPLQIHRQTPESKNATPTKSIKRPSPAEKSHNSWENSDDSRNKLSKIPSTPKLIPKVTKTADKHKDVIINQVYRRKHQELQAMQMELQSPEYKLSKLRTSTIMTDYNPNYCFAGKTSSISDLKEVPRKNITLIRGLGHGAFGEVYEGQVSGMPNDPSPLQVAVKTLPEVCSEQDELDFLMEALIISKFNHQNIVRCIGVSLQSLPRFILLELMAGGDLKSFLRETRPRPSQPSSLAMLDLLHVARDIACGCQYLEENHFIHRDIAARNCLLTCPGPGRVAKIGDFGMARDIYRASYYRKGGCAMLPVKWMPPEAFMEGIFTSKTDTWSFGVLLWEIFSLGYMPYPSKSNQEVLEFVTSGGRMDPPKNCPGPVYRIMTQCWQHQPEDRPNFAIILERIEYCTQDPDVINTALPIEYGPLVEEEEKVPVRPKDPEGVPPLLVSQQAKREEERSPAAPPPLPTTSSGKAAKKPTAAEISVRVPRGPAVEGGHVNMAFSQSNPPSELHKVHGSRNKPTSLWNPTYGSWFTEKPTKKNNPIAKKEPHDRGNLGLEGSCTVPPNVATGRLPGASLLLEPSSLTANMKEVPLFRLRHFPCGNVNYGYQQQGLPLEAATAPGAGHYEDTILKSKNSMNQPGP
T1 sequence (Q96SW2 whole entry): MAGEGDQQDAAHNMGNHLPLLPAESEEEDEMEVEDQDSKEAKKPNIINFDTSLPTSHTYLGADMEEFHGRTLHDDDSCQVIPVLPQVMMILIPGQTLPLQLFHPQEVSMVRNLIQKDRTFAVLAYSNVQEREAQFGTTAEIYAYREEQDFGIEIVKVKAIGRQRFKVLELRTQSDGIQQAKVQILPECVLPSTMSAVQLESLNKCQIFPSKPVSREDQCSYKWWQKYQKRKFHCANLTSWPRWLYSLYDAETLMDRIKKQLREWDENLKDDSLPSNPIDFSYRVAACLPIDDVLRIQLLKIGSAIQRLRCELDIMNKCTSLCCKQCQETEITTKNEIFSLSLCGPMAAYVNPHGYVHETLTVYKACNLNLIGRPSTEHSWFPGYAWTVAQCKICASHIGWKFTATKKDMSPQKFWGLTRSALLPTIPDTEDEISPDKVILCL
T1 sequence (Q16531 whole entry partner): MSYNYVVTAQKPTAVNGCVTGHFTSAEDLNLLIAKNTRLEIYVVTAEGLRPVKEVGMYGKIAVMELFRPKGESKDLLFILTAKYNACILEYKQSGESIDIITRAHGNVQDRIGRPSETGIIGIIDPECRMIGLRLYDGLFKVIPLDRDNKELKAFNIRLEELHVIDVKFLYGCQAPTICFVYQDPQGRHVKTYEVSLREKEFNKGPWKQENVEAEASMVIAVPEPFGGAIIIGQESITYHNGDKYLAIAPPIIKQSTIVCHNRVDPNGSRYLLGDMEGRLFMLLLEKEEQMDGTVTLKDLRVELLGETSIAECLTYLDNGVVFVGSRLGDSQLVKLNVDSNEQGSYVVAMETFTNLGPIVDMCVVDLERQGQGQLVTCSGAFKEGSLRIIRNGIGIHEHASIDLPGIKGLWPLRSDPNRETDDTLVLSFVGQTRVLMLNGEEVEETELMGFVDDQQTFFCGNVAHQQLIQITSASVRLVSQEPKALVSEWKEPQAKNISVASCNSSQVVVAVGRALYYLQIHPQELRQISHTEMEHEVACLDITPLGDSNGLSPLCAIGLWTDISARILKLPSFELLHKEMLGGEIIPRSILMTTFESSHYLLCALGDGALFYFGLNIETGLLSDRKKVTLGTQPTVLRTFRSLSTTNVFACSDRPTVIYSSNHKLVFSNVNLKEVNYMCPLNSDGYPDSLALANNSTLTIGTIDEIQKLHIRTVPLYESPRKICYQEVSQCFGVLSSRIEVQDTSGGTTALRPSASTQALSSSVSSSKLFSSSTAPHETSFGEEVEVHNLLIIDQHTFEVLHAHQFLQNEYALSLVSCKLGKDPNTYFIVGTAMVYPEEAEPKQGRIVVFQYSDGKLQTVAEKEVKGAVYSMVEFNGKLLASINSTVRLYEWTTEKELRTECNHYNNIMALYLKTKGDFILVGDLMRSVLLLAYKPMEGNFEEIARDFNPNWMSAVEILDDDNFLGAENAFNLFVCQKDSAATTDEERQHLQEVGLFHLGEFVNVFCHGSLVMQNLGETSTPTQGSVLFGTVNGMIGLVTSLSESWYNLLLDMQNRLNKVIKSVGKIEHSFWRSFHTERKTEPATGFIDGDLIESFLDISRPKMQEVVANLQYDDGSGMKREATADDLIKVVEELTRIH

Structure (SMILES)	Degradation of substrate protein ALK (substrate protein remaining %) (ALK)	IC50 (H2228) [nM]	IC50 (SR) [nM]	IC50 (MDA-MB-231) [nM]	IC50 (MCF7) [nM]	IC50 (H1975) [nM]	IC50 (MM.1S) [nM]
CCc1cc2c(cc1N1CCC(N3CCN(Cc4ccc(N5CCC(=O)NC5=O)cc4F)CC3)CC1)C(C)(C)c1[nH]c3cc(C#N)ccc3c1C2=O [GT-07309, 8-(4-(4-(4-(2,4-dioxotetrahydropyrimidin-1(2H)-yl)-2-fluorobenzyl)piperazin-1-yl)piperidin-1-yl)-9-ethyl-6,6-dimethyl-11-oxo-6,11-dihydro-5H-benzo[b]carbazole-3-carbonitrile]	A (A is defined as 0% ≤ substrate protein remaining % ≤ 80%)	100 to 500	10 to 50	500 to 1000	–	–	–
COc1cc(N2CCC(N3CCN(Cc4ccc(C5CCC(=O)NC5=O)cn4)CC3)CC2)ccc1Nc1ncc(Cl)c(Nc2ccccc2P(C)(C)=O)n1 (stereo not shown) [GT-07613, 3-(6-((4-(1-(4-((5-chloro-4-((2-(dimethylphosphoryl)phenyl)amino)pyrimidin-2-yl)amino)-3-methoxyphenyl)piperidin-4-yl)piperazin-1-yl)methyl)pyridin-3-yl)piperidine-2,6-dione]	A (A is defined as 0% ≤ substrate protein remaining % ≤ 80%)	50 to 100	1 to 10	500 to 1000	500 to 1000	500 to 1000	–
COc1cc(N2CCC(N3CCN(Cc4ccc(C5CCC(=O)NC5=O)cc4)CC3)CC2)ccc1Nc1ncc(Cl)c(Nc2ccccc2P(C)(C)=O)n1 (stereo not shown) [GT-07602, 3-(4-((4-(1-(4-((5-chloro-4-((2-(dimethylphosphoryl)phenyl)amino)pyrimidin-2-yl)amino)-3-methoxyphenyl)piperidin-4-yl)piperazin-1-yl)methyl)phenyl)piperidine-2,6-dione]	–	10 to 50	1 to 10	100 to 500	100 to 500	100 to 500	100 to 500
COc1cc(N2CCC(N(C)Cc3cncc(C4CCC(=O)NC4=O)c3)CC2)ccc1Nc1ncc(Cl)c(Nc2ccccc2P(C)(C)=O)n1 (stereo not shown) [GT-07699, 3-(5-(((1-(4-((5-chloro-4-((2-(dimethylphosphoryl)phenyl)amino)pyrimidin-2-yl)amino)-3-methoxyphenyl)piperidin-4-yl)(methyl)amino)methyl)pyridin-3-yl)piperidine-2,6-dione]	A (A is defined as 0% ≤ substrate protein remaining % ≤ 80%)	100 to 500	10 to 50	500 to 1000	500 to 1000	500 to 1000	–
COc1cc(N2CCN(Cc3cncc(C4CCC(=O)NC4=O)c3)CC2)ccc1Nc1ncc(Cl)c(Nc2ccccc2P(C)(C)=O)n1 (stereo not shown) [GT-07714, 3-(5-((4-(4-((5-chloro-4-((2-(dimethylphosphoryl)phenyl)amino)pyrimidin-2-yl)amino)-3-methoxyphenyl)piperazin-1-yl)methyl)pyridin-3-yl)piperidine-2,6-dione]	A (A is defined as 0% ≤ substrate protein remaining % ≤ 80%)	100 to 500	10 to 50	100 to 500	50 to 100	–	–
COc1cc(N2CCC(N(C)Cc3cccc(N4CCC(=O)NC4=O)c3)CC2)ccc1Nc1ncc(Cl)c(Nc2ccccc2P(C)(C)=O)n1 [GT-07616, 1-(3-(((1-(4-((5-chloro-4-((2-(dimethylphosphoryl)phenyl)amino)pyrimidin-2-yl)amino)-3-methoxyphenyl)piperidin-4-yl)(methyl)amino)methyl)phenyl)dihydropyrimidine-2,4(1H,3H)-dione]	–	10 to 50	1 to 10	500 to 1000	100 to 500	100 to 500	500 to 1000
CCc1cc2c(cc1N1CCC(N3CCN(Cc4cccc(N5CCC(=O)NC5=O)c4)CC3)CC1)C(C)(C)c1[nH]c3cc(C#N)ccc3c1C2=O [GT-07310, 8-(4-(4-(3-(2,4-dioxotetrahydropyrimidin-1(2H)-yl)benzyl)piperazin-1-yl)piperidin-1-yl)-9-ethyl-6,6-dimethyl-11-oxo-6,11-dihydro-5H-benzo[b]carbazole-3-carbonitrile]	A (A is defined as 0% ≤ substrate protein remaining % ≤ 80%)	100 to 500	1 to 10	500 to 1000	500 to 1000	–	–
COc1cc(N2CCC(N3CCN(Cc4cccc(N5CCC(=O)NC5=O)c4)CC3)CC2)ccc1Nc1ncc(Cl)c(Nc2ccccc2P(C)(C)=O)n1 [GT-07604, 1-(3-((4-(1-(4-((5-chloro-4-((2-(dimethylphosphoryl)phenyl)amino)pyrimidin-2-yl)amino)-3-methoxyphenyl)piperidin-4-yl)piperazin-1-yl)methyl)phenyl)dihydropyr imidine-2,4(1H,3H)-dione]	–	10 to 50	1 to 10	500 to 1000	100 to 500	100 to 500	500 to 1000
COc1cc(N2CCC(N(C)Cc3cncc(N4CCC(=O)NC4=O)c3)CC2)ccc1Nc1ncc(Cl)c(Nc2ccccc2P(C)(C)=O)n1 [GT-07695, 1-(5-(((1-(4-((5-chloro-4-((2-(dimethylphosphoryl)phenyl)amino)pyrimidin-2-yl)amino)-3-methoxyphenyl)piperidin-4-yl)(methyl)amino)methyl)pyridin-3-yl)dihydropyrimidine-2,4(1H,3H)-dione]	–	100 to 500	10 to 50	500 to 1000	100 to 500	500 to 1000	100 to 500
COc1cc(N2CCC(N(C)Cc3cccc(NC4CCC(=O)NC4=O)c3)CC2)ccc1Nc1ncc(Cl)c(Nc2ccccc2P(C)(C)=O)n1 (stereo not shown) [GT-07692, 3-((3-(((1-(4-((5-chloro-4-((2-(dimethylphosphoryl)phenyl)amino)pyrimidin-2-yl)amino)-3-methoxyphenyl)piperidin-4-yl)(methyl)amino)methyl)phenyl)amino)piperidine-2,6-dione]	A (A is defined as 0% ≤ substrate protein remaining % ≤ 80%)	100 to 500	10 to 50	500 to 1000	100 to 500	500 to 1000	–
COc1cc(N2CCC(N3CCN(C)CC3)CC2)ccc1Nc1ncc(Cl)c(Nc2ccccc2P(C)(C)=O)n1 [brigatinib, reference compound]	–	> 10000	100 to 500	1000 to 5000	1000 to 5000	> 10000	1000 to 5000
COc1cc(N2CCC(N3CCN(Cc4cccc(NC5CCC(=O)NC5=O)c4)CC3)CC2)ccc1Nc1ncc(Cl)c(Nc2ccccc2P(C)(C)=O)n1 (stereo not shown) [GT-07605, 3-((3-((4-(1-(4-((5-chloro-4-((2-(dimethylphosphoryl)phenyl)amino)pyrimidin-2-yl)amino)-3-methoxyphenyl)piperidin-4-yl)piperazin-1-yl)methyl)phenyl)amino)pip eridine-2,6-dione]	A (A is defined as 0% ≤ substrate protein remaining % ≤ 80%)	50 to 100	1 to 10	100 to 500	100 to 500	100 to 500	–
COc1cc(N2CCC(N3CCN(Cc4ccnc(C5CCC(=O)NC5=O)c4)CC3)CC2)ccc1Nc1ncc(Cl)c(Nc2ccccc2P(C)(C)=O)n1 (stereo not shown) [GT-07612, 3-(4-((4-(1-(4-((5-chloro-4-((2-(dimethylphosphoryl)phenyl)amino)pyrimidin-2-yl)amino)-3-methoxyphenyl)piperidin-4-yl)piperazin-1-yl)methyl)pyridin-2-yl)piperidine-2,6-dione]	A (A is defined as 0% ≤ substrate protein remaining % ≤ 80%)	50 to 100	1 to 10	500 to 1000	–	100 to 500	–
